{"source": "patent US5446032A", "about": "“Imidazo (4,5-C) pyridine derivatives as PAF antagonists” (British Biotech Pharmaceuticals Limited, priority 1991, dated 1995)"}
{"target": "T1, PAF receptor (human platelet plasma membrane) (Homo sapiens, UniProt P25105)", "T1 construct": "Platelet concentrates are obtained from a hospital blood bank; from tissue; host or cells: human platelets (concentrates from a hospital blood bank), lysed by freeze-thaw; membrane fraction", "T1 sequence (P25105 whole entry)": "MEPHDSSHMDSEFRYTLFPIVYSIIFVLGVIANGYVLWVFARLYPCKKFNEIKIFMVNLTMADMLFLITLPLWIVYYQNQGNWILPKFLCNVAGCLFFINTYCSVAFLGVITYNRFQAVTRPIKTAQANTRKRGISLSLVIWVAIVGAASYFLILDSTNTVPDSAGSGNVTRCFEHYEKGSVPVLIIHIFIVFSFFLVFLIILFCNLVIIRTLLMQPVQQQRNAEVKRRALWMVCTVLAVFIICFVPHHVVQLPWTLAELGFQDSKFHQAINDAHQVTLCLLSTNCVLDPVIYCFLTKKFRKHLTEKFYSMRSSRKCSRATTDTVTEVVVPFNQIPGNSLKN", "assay": "Inhibition of [3H]-PAF receptor binding to human platelet plasma membrane", "details": "[3H]-PAF 0.5 nM; 100 μg membrane fraction; 0° C.; 1 hour incubation; pH 7.0", "procedure": "Compounds of general formula I inhibit PAF-induced functions in both the cellular and tissue levels by changing the PAF binding to its specific receptor site. The ability of compounds of general formula I to inhibit the binding of PAF to its specific receptor binding site on human platelet plasma membranes was measured according to Example 24.\nInhibition of [^3 H]-PAF Receptor Binding\nThe inhibition of [^3 H]-PAF binding to human platelet plasma membrane by compounds of general formula I is determined by isotopic labelling and filtration techniques. Platelet concentrates are obtained from a hospital blood bank. These platelet concentrates (500-2500 ml.) are centrifuged at 800 rpm for 10 minutes in a SORVALL RC3B centrifuge to remove the red blood cells present. (The word SORVALL is a trade mark.) The supernatant is subsequently centrifuged at 3,000 rpm in a SORVALL RC3B centrifuge to pellet the platelets present. The platelet rich pellets are resuspended in a minimum volume of buffer (150 mM NaCl, 10 mM Tris, 2 mM EDTA, pH 7.5) and layered onto Ficoll-Paque gradients, 9 ml platelet concentrate to 2 ml Ficoll, and centrifuged at 1,900 rpm for 15 minutes in a SORVALL RT6000 centrifuge. This step removes the residual red blood cells and other nonspecific material such as lymphocytes from the preparation. The platelets which form a band between the plasma and the Ficoll are removed, resuspended in the above buffer and centrifuged at 3,000 rpm for 10 minutes in a SORVALL RT6000 centrifuge. The pelleted platelets are resuspended in buffer (10 mM Tris, 5 mM MgCl2, 2 mM EDTA, pH 7.0), snap freezed in liquid N2 and allowed to thaw slowly at room temperature in order to lyse the platelets. The latter step is repeated at least 3 times to ensure proper lysis. The lysed platelets are centrifuged at 3,000 rpm for 10 minutes in a SORVALL RT6000 centrifuge and resuspended in buffer. The latter step is repeated twice in order to remove any cytoplasmic proteins which may hydrolyse the platelet activating factor (PAF) receptor. The prepared platelet membranes may be stored at -70° C. After thawing the prepared membranes are centrifuged in a SORVALL RT6000 at 3,000 rpm for 10 minutes and resuspended in assay buffer.\nThe assay is conducted by preparing a series of Tris-buffered solutions of the selected antagonist of predetermined concentrations. Each of these solutions contained [^3 H]-PAF (0.5 nM; 1-O-[^3 H]octadecyl-2-acetyl-sn-glycero-3-phosphoryl choline with a specific activity of 132 Ci/mmol), […], a known amount of the test antagonist, and a sufficient amount of Tris-buffer solution (10 mM Tris, 5 mM MgC2, pH 7.0, 0.25% BSA) to make the final volume 1 ml. Incubation is initiated by the addition of 100 μg of the isolated membrane fraction to each of the above solutions at 0° C. Two control samples, one (C1) which contained all the ingredients described above except the antagonist and the other (C2) contains C1 plus a 1000-fold excess of unlabelled PAF, are also prepared and incubated simultaneously with the test samples. After 1 hour incubation, each solution is filtered rapidly under vacuo through a WHATMAN GF/C glass fibre filter in order to separate unbound PAF from bound PAF. (The word WHATMAN is a trade mark.) The residue in each case is rapidly washed 4 times with 5 ml cold (4° C.) Tris-buffer solution. Each washed residue is dried under vacuum on a sampling manifold and placed into vials containing 20 ml of OPTIPHASE MP scintillation fluid and the radioactivity counted in a liquid scintillation counter. (The word OPTIPHASE is a trade mark.) Defining the counts for total binding with antagonist from a test sample as \"TBA\"; the counts for total binding from the control sample C1 as \"TB\"; and the counts for nonspecific binding from the control sample C2 as \"NSB\"; the percent inhibition of each test antagonist can be determined by the following equation:\n%Inhibition=[(TB-TBA)/SB]×100\nwhere the specific binding SB=TB-NSB […]", "units": {"IC50": "nM"}}
{"smiles": "CCOC(=O)[C@H](CC(C)C)N(C)S(=O)(=O)c1ccc(Cn2ccc3ncnc-3c2)cc1", "note": "[Example 1, N-Methyl-N-4-(5H-imidazo[4,5-c]pyridylmethyl)phenylsulphonyl-L-leucine ethyl ester]", "IC50": 5}
{"smiles": "C=CCOC(=O)[C@H]([C@@H](C)CC)N(C)S(=O)(=O)c1ccc(Cn2ccc3nc(C)nc-3c2)cc1", "note": "[Example 4, N-Methyl-N-4-(5H-2-methylimidazo[4,5-c]pyridylmethyl)phenylsulphonyl-L-isoleucine allyl ester]", "IC50": 10}
{"smiles": "CCOC(=O)[C@H](CC(C)C)N(C)S(=O)(=O)c1ccc(Cn2ccc3nc(C)nc-3c2)c(Cl)c1", "note": "[Example 5, N-Methyl-N-4-(5H-2-methylimidazo[4,5-c]pyridylmethyl)-3-chlorophenylsulphonyl-L-leucine ethyl ester]", "IC50": 2}
{"smiles": "CCOC(=O)CN([C@@H](CC(C)C)C(=O)OCC)S(=O)(=O)c1ccc(Cn2ccc3nc(C)nc-3c2)cc1", "note": "[Example 6, N-Ethoxycarbonylmethyl-N-4-(5H-2-methylimidazo[4,5-c]pyridylmethyl)phenylsulphonyl-L-leucine ethyl ester]", "IC50": 10}
{"smiles": "CCOC(=O)[C@H](CC(C)C)N(CC(=O)OC(C)(C)C)S(=O)(=O)c1ccc(Cn2ccc3nc(C)nc-3c2)cc1", "note": "[Example 8, N-t-Butyloxycarbonylmethyl-N-4-(5H-2-methylimidazo[4,5-c]pyridylmethyl)phenylsulphonyl-L-leucine ethyl ester]", "IC50": 15}
{"smiles": "Cc1nc2ccn(Cc3ccc(S(=O)(=O)N(C)[C@H](CO[Si](c4ccccc4)(c4ccccc4)C(C)(C)C)CC(C)C)cc3)cc-2n1", "note": "[Example 21, N-Methyl-N-4-(5H-2-methylimidazo[4,5-c]pyridylmethyl)phenylsulphonyl-L-leucinyl t-butyldiphenylsilyl ether]", "IC50": 20}
{"smiles": "COC(C)C(C(C)C)N(C)S(=O)(=O)c1ccc(Cn2ccc3nc(C)nc-3c2)cc1", "note": "(stereo not shown) [Example 23, N-Methyl-N-4-(5H-2-methylimidazo[4,5-c]pyridylmethyl)phenylsulphonyl-2-methoxy-3-amino-4-methylpentane]", "IC50": 15}
